# Tests used:
# [1] = molecular target: T1, Human immunodeficiency virus type 1 integrase (Human immunodeficiency virus 1, UniProt Q7ZJM1); assay: Inhibition of recombinant HIV1 integrase-mediated 3'-processing activity in presence of magnesium
# [2] = molecular target: T1, Human immunodeficiency virus type 1 integrase; assay: Inhibition of recombinant HIV1 integrase strand transfer activity in presence of magnesium
# [3] = system: Human immunodeficiency virus 1; assay: Antiviral activity against HIV1 in cell based assay; format: functional, organism-based
# [4] = molecular target: T1, Human immunodeficiency virus type 1 integrase; assay: Inhibition of recombinant HIV1 integrase-mediated 3'-processing activity in presence of manganese
# [5] = molecular target: T1, Human immunodeficiency virus type 1 integrase; assay: Inhibition of recombinant HIV1 integrase strand transfer activity in presence of manganese
# T1 sequence (Q7ZJM1 whole entry): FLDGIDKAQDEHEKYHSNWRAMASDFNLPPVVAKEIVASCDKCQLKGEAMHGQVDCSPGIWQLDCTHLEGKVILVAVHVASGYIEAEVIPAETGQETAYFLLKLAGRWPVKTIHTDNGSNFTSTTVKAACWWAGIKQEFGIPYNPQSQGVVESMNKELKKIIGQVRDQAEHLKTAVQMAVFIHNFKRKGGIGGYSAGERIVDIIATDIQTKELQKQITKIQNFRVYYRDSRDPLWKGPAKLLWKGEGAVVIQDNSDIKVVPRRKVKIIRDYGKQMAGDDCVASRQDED
IC50 [1] [µM],IC50 [2] [µM],EC50 [3] [µM],IC50 [4] [µM],IC50 [5] [µM],SMILES
> 333,170,,,,O=C(NN1Cc2ccc(O)c(O)c2C1=O)c1ccc(F)cc1
37,13,,,,O=C1c2c(ccc(O)c2O)CN1Cc1cccc(CBr)c1
85,50,,,,O=C(NCCNC(=O)c1cccc(O)c1O)c1cccc(O)c1O
> 333,293,,,,O=C(NN1Cc2ccc(O)c(O)c2C1=O)c1ccccc1O
1.6,0.21,,,,O=C1c2c(ccc(O)c2O)CN1N(S(=O)(=O)c1ccc(O)c(O)c1)S(=O)(=O)c1ccc(O)c(O)c1
42,11,,,,O=C1c2c(ccc(O)c2O)CN1N1C(=O)c2cccc(O)c2C1=O
69,21,,,,O=C1c2c(ccc(O)c2O)CN1NS(=O)(=O)c1ccc(F)cc1
> 333,> 333,,,,COc1cccc(C(=O)NCc2ccc(F)cc2)c1O
78,0.6,,,,O=C1c2c(ccc(O)c2O)CN1N1C(=O)c2ccc(O)c(O)c2C1=O
> 333,129,,,,O=C(NN1Cc2ccc(O)c(O)c2C1=O)c1ccccc1
> 333,> 333,,,,O=C1c2c(ccc(O)c2O)CN1/N=C/c1ccc(F)cc1
> 333,6,,,,O=C(NN1Cc2ccc(O)c(O)c2C1=O)c1cccc(O)c1O
7,1.2,,,,O=C1c2c(ccc(O)c2O)CN1N1Cc2ccc(O)c(O)c2S1(=O)=O
124,41,,,,O=C1c2c(ccc(O)c2O)CN1N1Cc2ccc(O)c(O)c2C1=O
282,10,0.77,,,O=C1c2c(ccc(O)c2O)CN1Cc1ccc(F)cc1
> 333,> 333,,,,O=C1c2ccc(O)c(O)c2CN1Cc1ccc(F)cc1
> 333,33,,,,O=C1c2c(ccc(O)c2O)CN1N(S(=O)(=O)c1ccc(F)cc1)S(=O)(=O)c1ccc(F)cc1
> 333,> 333,,> 333,111,NNC(=O)c1cccc(O)c1O
186,53,,,,O=C1c2c(ccc(O)c2O)CN1N1C(=O)c2ccc(F)cc2C1=O
245,123,,26,22,COc1cccc(C(=O)NNC(=O)c2cccc(OC)c2O)c1O
> 333,> 333,,,,COc1cccc(C(=O)N/N=C/c2ccc(F)cc2)c1O

IC50 [1] [µM],IC50 [2] [µM],EC50 [3] [µM],IC50 [4] [µM],IC50 [5] [µM],SMILES
> 333,> 333,,,,O=C1c2cccc(O)c2C(=O)N1Cc1ccc(F)cc1
6.9,1.6,1.67,8.9,5,O=C(NNC(=O)c1cccc(O)c1O)c1cccc(O)c1O
> 333,> 333,,> 333,> 333,COc1cccc(C(=O)NNC(=O)c2cccnc2)c1O
> 333,108,> 30,,,O=C(NCc1ccc(F)cc1)c1cccc(O)c1O
138,44,,11,9,COc1cccc(C(=O)NNC(=O)c2cccc(O)c2O)c1O
> 333,> 333,,> 333,112,O=C(NNC(=O)c1cccc(O)c1O)c1cccnc1
> 333,12.3,0.68,,,O=C1c2c(ccc(O)c2O)CN1Cc1ccccc1
61,0.74,,,,O=C1c2c(ccc(O)c2O)CN1Cc1cccc2ccccc12
> 333,> 333,,> 333,> 333,COc1cccc(C(=O)NN)c1O
33,31,,,,O=C(NCCCNC(=O)c1cccc(O)c1O)c1cccc(O)c1O
> 333,172,,,,O=C1c2c(ccc(O)c2O)CN1Cc1cccc(Cc2ccccc2)c1
61,54,,11,1.3,O=C(N/N=C/c1cccc(O)c1O)c1cccc(O)c1O
> 333,> 333,2.2,3.6,1.8,O=C(NNC(=O)c1ccccc1O)c1ccccc1O
> 333,> 333,4.8,2.8,0.5,O=C(NNC(=O)c1cccc(O)c1O)c1ccccc1O
87,54,,,,O=C1c2c(ccc(O)c2O)CN1/N=C/c1cccc(O)c1O
6.7,0.81,,,,O=C1c2c(ccc(O)c2O)CN1N1C(=O)c2cc(O)c(O)cc2C1=O
> 333,> 333,,12,8,COc1cccc(C(=O)NNC(=O)c2cc3ccccc3cc2O)c1O
72,32,,19,16,O=C(NNC(=O)c1cccc(O)c1O)c1cc2ccccc2cc1O
> 333,> 333,,,,O=C1c2c(ccc(O)c2O)CN1N1C(=O)c2ccccc2C1=O
112,68,,> 333,18,COc1cccc(/C=N/NC(=O)c2cccc(O)c2O)c1OC
> 333,28,,,,O=C1c2c(ccc(O)c2O)CN1CCc1ccccc1

SMILES,IC50 [1] [µM],IC50 [2] [µM],EC50 [3] [µM],IC50 [4] [µM],IC50 [5] [µM]
O=C1c2c(ccc(O)c2O)CN1Cc1ccc(F)c(Cl)c1,13,0.16,,,

# — ChEMBL document CHEMBL1140713, “2,3-dihydro-6,7-dihydroxy-1H-isoindol-1-one-based HIV-1 integrase inhibitors” (J Med Chem, 2008)
